Laboratory results reported in CN111517978A, “环己烯基-dl-天门冬氨酸衍生物及其制备方法、组合物与用途” (Zhongshan Wanhan Pharmaceutical Co ltd, priority 2020, dated 2020).

What was measured:
Format in all cases: cell-based
Details in all cases: component A (XP or YS) alone
[1] = system: Escherichia coli ATCC25922 (大肠杆菌ATCC25922); test: Antibacterial action (MIC, FICI) against Escherichia coli ATCC25922 (Table 7)
[2] = system: Stenotrophomonas maltophilia NCTC 13637 (嗜麦芽窄食单胞菌NCTC 13637); test: Antibacterial action (MIC, FICI) against Stenotrophomonas maltophilia NCTC 13637 (Table 18)
[3] = system: Propionibacterium acnes ATCC11828 (痤疮丙酸杆菌ATCC11828); test: Antibacterial action (MIC, FICI) against Propionibacterium acnes ATCC11828 (Table 21)
[4] = system: Serratia marcescens IFO 3736 (黏质沙雷氏菌IFO 3736); test: Antibacterial action (MIC, FICI) against Serratia marcescens IFO 3736 (Table 10)
[5] = system: Clostridium perfringens ATCC13124 (产气荚膜梭状芽孢杆菌ATCC13124)
[6] = system: Providencia stuartii 57 (斯氏普罗威登斯菌57); test: Antibacterial action (MIC, FICI) against Providencia stuartii 57 (Table 12)
[7] = system: Micrococcus lysodeikticus 2665 (溶壁微球菌2665); test: Antibacterial action (MIC, FICI) against Micrococcus lysodeikticus 2665 (Table 4)
[8] = system: Streptococcus intermedius ATCC27335 (中间链球菌ATCC27335); test: Antibacterial action (MIC, FICI) against Streptococcus intermedius ATCC27335 (Table 20)
[9] = system: Shigella flexneri 2aEW-10 (福氏志贺氏菌2aEW-10); test: Antibacterial action (MIC, FICI) against Shigella flexneri 2aEW-10 (Table 15)
[10] = system: Klebsiella pneumoniae NCTC 9632 (肺炎克雷伯菌NCTC 9632); test: Antibacterial action (MIC, FICI) against Klebsiella pneumoniae NCTC 9632 (Table 9)

CCOC(=O)C1=C[C@@H](OC(C)C)[C@H](NC(C)=O)[C@@H](N)C1 [化合物20S, 乙基(3R,4R,5S)-4-乙酰氨基-5-氨基-3-异丙氧基环己-1-烯-1-羧酸酯]
MIC_A [1]: 704 ng/mL
MIC_A [2]: 1079 ng/mL
MIC_A [3]: 771 ng/mL

CCOC(=O)C1=C[C@@H](O)[C@H](N)[C@@H](N)C1 [化合物14S, 乙基(3R,4R,5S)-4,5-二氨基-3-羟基环己-1-烯-1-羧酸酯]
MIC_A [4]: 1102 ng/mL
MIC_A [3]: 701 ng/mL

CCOC(=O)C1=C[C@@H](OC(CC)CC)[C@H](NC(C)=O)[C@@H](NC(CC(=O)O)C(=O)O)C1 (mixture of isomers) [化合物1P, ((1S,5R,6R)-6-乙酰氨基-3-(乙氧基羰基)-5-(戊-3-基氧基)环己-3-烯-1-基)-DL-天门冬氨酸]
MIC_A [5]: 12 ng/mL
MIC_A [6]: 13 ng/mL
MIC_A [3]: 18 ng/mL
MIC_A [7]: 4 ng/mL

CCOC(=O)C1=C[C@@H](OC(C)C)[C@H](NC(C)=O)[C@@H](NC(CC(=O)O)C(=O)O)C1 (mixture of isomers) [化合物20P, ((1S,5R,6R)-6-乙酰氨基-3-(乙氧基羰基)-5-异丙氧基环己-3-烯-1-基)-DL-天门冬氨酸]
MIC_A [1]: 19 ng/mL
MIC_A [2]: 36 ng/mL
MIC_A [3]: 18 ng/mL

CCOC(=O)C1=C[C@@H](OC(C)CC)[C@H](NC(C)=O)[C@@H](NC(CC(=O)O)C(=O)O)C1 (mixture of isomers) [化合物19P, ((1S,5R,6R)-6-乙酰氨基-5-(sec-丁氧基)-3-(乙氧基羰基)环己-3-烯-1-基)-DL-天门冬氨酸]
MIC_A [6]: 17 ng/mL
MIC_A [8]: 11 ng/mL
MIC_A [4]: 13 ng/mL

CCOC(=O)C1=C[C@@H](OC(CC)CC)[C@H](NC(C)=O)[C@@H](N)C1 [化合物4S, 乙基(3R,4R,5S)-4-乙酰氨基-5-氨基-3-(戊-3-基氧基)环己-1-烯-1-羧酸酯]
MIC_A [5]: 762 ng/mL
MIC_A [6]: 581 ng/mL
MIC_A [1]: 456 ng/mL

CCC(CC)O[C@@H]1C=C(C(=O)O)C[C@H](NC(C)=O)[C@H]1N [化合物2S, (3R,4R,5S)-5-乙酰氨基-4-氨基-3-(戊-3-基氧基)环己-1-烯-1-羧酸]
MIC_A [1]: 720 ng/mL
MIC_A [8]: 493 ng/mL
MIC_A [2]: 879 ng/mL
MIC_A [9]: 345 ng/mL

CCOC(=O)C1=C[C@@H](O)[C@H](NC(C)=O)[C@@H](N)C1 [化合物13S, 乙基(3R,4R,5S)-4-乙酰氨基-5-氨基-3-羟基环己-1-烯-1-羧酸酯]
MIC_A [10]: 1081 ng/mL
MIC_A [6]: 1021 ng/mL
MIC_A [8]: 655 ng/mL
MIC_A [7]: 914 ng/mL

CCOC(=O)C1=C[C@H](OC(CC)CC)[C@@H](NC(C)=O)[C@H](NC(CC(=O)O)C(=O)O)C1 (mixture of isomers) [化合物7P, ((1R,5S,6S)-6-乙酰氨基-3-(乙氧基羰基)-5-(戊-3-基氧基)环己-3-烯-1-基)-DL-天门冬氨酸]
MIC_A [10]: 25 ng/mL
MIC_A [1]: 27 ng/mL
MIC_A [3]: 10 ng/mL
MIC_A [9]: 60 ng/mL

CCOC(=O)C1=C[C@@H](OC(CC)CC)[C@H](NC(C)=O)[C@@H](NC(CC(=O)O)C(=O)O)C1 (mixture of isomers) [化合物4P, ((1S,5R,6R)-6-乙酰氨基-3-(乙氧基羰基)-5-(戊-3-基氧基)环己-3-烯-1-基)-DL-天门冬氨酸]
MIC_A [5]: 36 ng/mL
MIC_A [6]: 34 ng/mL
MIC_A [1]: 17 ng/mL

CCC(CC)O[C@H]1C=C(C(=O)O)C[C@@H](NC(CC(=O)O)C(=O)O)[C@@H]1N (mixture of isomers) [化合物16P, ((1R,5S,6S)-6-氨基-3-羧基-5-(戊-3-基氧基)环己-3-烯-1-基)-DL-天门冬氨酸]
MIC_A [10]: 15 ng/mL

CCOC(=O)C1=C[C@H](OC(CC)CC)[C@H](NC(C)=O)[C@@H](N)C1 [化合物6S, 乙基(3S,4R,5S)-4-乙酰氨基-5-氨基-3-(戊-3-基氧基)环己-1-烯-1-羧酸酯]
MIC_A [8]: 521 ng/mL
MIC_A [4]: 445 ng/mL
MIC_A [2]: 473 ng/mL
MIC_A [7]: 556 ng/mL

CCOC(=O)C1=C[C@@H](OC(C)CC)[C@H](NC(C)=O)[C@@H](N)C1 (stereo partly drawn) [化合物19S, 乙基(3R,4R,5S)-4-乙酰氨基-5-氨基-3-(sec-丁氧基)环己-1-烯-1-羧酸酯]
MIC_A [6]: 823 ng/mL
MIC_A [8]: 310 ng/mL
MIC_A [4]: 1016 ng/mL

CCOC(=O)C1=C[C@@H](OC(CC)CC)[C@@H](NC(C)=O)[C@@H](N)C1 [化合物8S, 乙基(3R,4S,5S)-4-乙酰氨基-5-氨基-3-(戊-3-基氧基)环己-1-烯-1-羧酸酯]
MIC_A [5]: 483 ng/mL
MIC_A [2]: 800 ng/mL

CCOC(=O)C1=C[C@@H](OC(CC)CC)[C@H](N)[C@@H](NC(CC(=O)O)C(=O)O)C1 (mixture of isomers) [化合物12P, ((1S,5R,6R)-6-氨基-3-(乙氧基羰基)-5-(戊-3-基氧基)环己-3-烯-1-基)-DL-天门冬氨酸]
MIC_A [8]: 25 ng/mL
MIC_A [4]: 47 ng/mL
MIC_A [7]: 30 ng/mL

CCOC(=O)C1=C[C@H](OC(CC)CC)[C@H](NC(C)=O)[C@@H](NC(CC(=O)O)C(=O)O)C1 (mixture of isomers) [化合物6P, ((1S,5S,6R)-6-乙酰氨基-3-(乙氧基羰基)-5-(戊-3-基氧基)环己-3-烯-1-基)-DL-天门冬氨酸]
MIC_A [8]: 28 ng/mL
MIC_A [4]: 7 ng/mL
MIC_A [2]: 17 ng/mL
MIC_A [7]: 26 ng/mL

CCOC(=O)C1=C[C@@H](OC(CC)CC)[C@H](N)[C@@H](N)C1 [化合物12S, 乙基(3R,4R,5S)-4,5-二氨基-3-(戊-3-基氧基)环己-1-烯-1-羧酸酯]
MIC_A [8]: 406 ng/mL
MIC_A [4]: 691 ng/mL
MIC_A [7]: 1027 ng/mL

CCC(CC)O[C@@H]1C=C(C(=O)O)C[C@H](NC(C)=O)[C@H]1NC(CC(=O)O)C(=O)O (mixture of isomers) [化合物2P, ((1R,2R,6S)-6-乙酰氨基-4-羧基-2-(戊-3-基氧基)环己-3-烯-1-基)-DL-天门冬氨酸]
MIC_A [1]: 45 ng/mL
MIC_A [8]: 10 ng/mL
MIC_A [2]: 13 ng/mL
MIC_A [9]: 22 ng/mL

CCOC(=O)C1=C[C@H](OC(CC)CC)[C@@H](NC(C)=O)[C@H](N)C1 [化合物7S, 乙基(3S,4S,5R)-4-乙酰氨基-5-氨基-3-(戊-3-基氧基)环己-1-烯-1-羧酸酯]
MIC_A [10]: 376 ng/mL
MIC_A [1]: 484 ng/mL
MIC_A [3]: 461 ng/mL
MIC_A [9]: 1145 ng/mL

CCC(CC)O[C@@H]1C=C(C(=O)O)C[C@H](NC(CC(=O)O)C(=O)O)[C@H]1N (mixture of isomers) [化合物11P, ((1S,5R,6R)-6-氨基-3-羧基-5-(戊-3-基氧基)环己-3-烯-1-基)-DL-天门冬氨酸]
MIC_A [10]: 22 ng/mL
MIC_A [5]: 22 ng/mL
MIC_A [6]: 17 ng/mL
MIC_A [1]: 7 ng/mL
MIC_A [2]: 50 ng/mL

CCOC(=O)C1=C[C@@H](O)[C@H](N)[C@@H](NC(CC(=O)O)C(=O)O)C1 (mixture of isomers) [化合物14P, ((1S,5R,6R)-6-氨基-3-(乙氧基羰基)-5-羟基环己-3-烯-1-基)-DL-天门冬氨酸]
MIC_A [4]: 46 ng/mL
MIC_A [3]: 18 ng/mL

CCOC(=O)C1=C[C@@H](OC(CC)CC)[C@@H](NC(C)=O)[C@@H](NC(CC(=O)O)C(=O)O)C1 (mixture of isomers) [化合物8P, ((1S,5R,6S)-6-乙酰氨基-3-(乙氧基羰基)-5-(戊-3-基氧基)环己-3-烯-1-基)-DL-天门冬氨酸]
MIC_A [5]: 28 ng/mL
MIC_A [2]: 41 ng/mL

CCC(CC)O[C@H]1C=C(C(=O)O)C[C@@H](N)[C@@H]1N [化合物16S, (3S,4S,5R)-4,5-二氨基-3-(戊-3-基氧基)环己-1-烯-1-羧酸]
MIC_A [10]: 1179 ng/mL

CCOC(=O)C1=C[C@@H](O)[C@H](NC(C)=O)[C@@H](NC(CC(=O)O)C(=O)O)C1 (mixture of isomers) [化合物13P, ((1S,5R,6R)-6-乙酰氨基-3-(乙氧基羰基)-5-羟基环己-3-烯-1-基)-DL-天门冬氨酸]
MIC_A [10]: 55 ng/mL
MIC_A [6]: 54 ng/mL
MIC_A [8]: 22 ng/mL
MIC_A [7]: 27 ng/mL

CCC(CC)O[C@@H]1C=C(C(=O)O)C[C@H](N)[C@H]1N [化合物11S, (3R,4R,5S)-4,5-二氨基-3-(戊-3-基氧基)环己-1-烯-1-羧酸]
MIC_A [10]: 650 ng/mL
MIC_A [5]: 482 ng/mL
MIC_A [6]: 1106 ng/mL
MIC_A [1]: 659 ng/mL
MIC_A [2]: 774 ng/mL
